By EC50 is commonly meant the midpoint of the concentration-response curve.

The source of these data is ChEMBL document CHEMBL1135981, “Designing analogues of mini atrial natriuretic peptide based on structural analysis by NMR and restrained molecular dynamics” (J Med Chem, 2002).

SMILES strings stand for the structures.

This assay concerns CHO. Kind of assay: Evaluated for Biological activity, 50% effective concentration determined by its ability to produce cGMP. The settings on record: Cricetulus griseus. The assay is classed as functional, cell-based.
With `CC[C@H](C)[C@@H]1NC(=O)[C@H](CCCN=C(N)N)NC(=O)[C@H](CC(=O)O)NC(=O)[C@H](CCSC)NC(=O)[C@H](CCCN=C(N)N)NC(=O)[C@@H](C)NC(=O)[C@@H](C)NC(=O)[C@H](Cc2ccccc2)NC(=O)[C@H](Cc2c[nH]cn2)NC(=O)[C@@H](NC(=O)[C@@H](N)CCSC)CSSC[C@@H](C(=O)N[C@@H](Cc2ccc(O)cc2)C(=O)N[C@@H](CCCN=C(N)N)C(N)=O)NC(=O)[C@H](CO)NC1=O`, the EC50 turned out to be 1.31 nM.
Take `CC[C@H](C)[C@@H]1NC(=O)[C@H](CCCN=C(N)N)NC(=O)[C@H](CC(=O)O)NC(=O)[C@H](CCSC)NC(=O)[C@H](CCCN=C(N)N)NC(=O)[C@@H](C)NC(=O)CNC(=O)[C@H](Cc2ccccc2)NC(=O)[C@H](Cc2c[nH]cn2)NC(=O)[C@@H](NC(=O)[C@@H](N)CCSC)CSSC[C@@H](C(=O)N[C@@H](Cc2ccc(O)cc2)C(=O)N[C@@H](CCCN=C(N)N)C(N)=O)NC(=O)[C@H](CO)NC1=O`: the EC50 came out at 3.76 nM.
The figure for `CC[C@H](C)[C@@H]1NC(=O)[C@H](CCCN=C(N)N)NC(=O)[C@H](CC(=O)O)NC(=O)[C@H](CCSC)NC(=O)[C@H](CCCN=C(N)N)NC(=O)CNC(=O)[C@@H](C)NC(=O)[C@H](Cc2ccccc2)NC(=O)[C@H](Cc2c[nH]cn2)NC(=O)[C@@H](NC(=O)[C@@H](N)CCSC)CSSC[C@@H](C(=O)N[C@@H](Cc2ccc(O)cc2)C(=O)N[C@@H](CCCN=C(N)N)C(N)=O)NC(=O)[C@H](CO)NC1=O` is 0.176 nM.
